Patent publication US10450279B2 (priority 2014, dated 2019)

Experiments:
Type in all cases: cell-based
Details in all cases: relative growth vs active compound-free control (100%), 405 nm, 7 days after inoculation
Botrytis cinerea = assay: Activity against the grey mold Botrytis cinerea in the microtiterplate test (Botrci)
Pyricularia oryzae = test system: Pyricularia oryzae
Septoria tritici = assay: Activity against leaf blotch on wheat caused by Septoria tritici (Septtr), microtiterplate test

Compound | Growth (%) at 31 ppm Botrci (Botrytis cinerea) [%] | Growth (%) at 31 ppm Pyrior (Pyricularia oryzae) [%] | Growth (%) at 8 ppm Septtr (Septoria tritici) [%]
CC(O)(Cn1cncn1)c1ccc(Oc2ccc(F)cc2)cc1Cl (stereo not drawn) [compound 33] | 0 | 0 | 1
OC(Cn1cncn1)(c1ccc(Oc2ccc(Cl)cc2Cl)cc1Cl)C1CC1 (stereo not drawn) [compound 39] | 0 | 2 | 14
OC(Cn1cncn1)(c1ccc(Oc2ccc(F)cc2)cc1Cl)C1CC1 (stereo not drawn) [compound 37] | 1 | 1 | 0
CC(O)(Cn1cncn1)c1ccc(Oc2ccccc2C(F)(F)F)cc1C(F)(F)F (stereo not drawn) [compound 26] | – | – | 1
CC(C)(C)C(O)(Cn1cncn1)c1ccc(Oc2ccc(F)cc2)cc1 (stereo not drawn) [compound 44] | 1 | 0 | 0
CCC(O)(Cn1cncn1)c1ccc(Oc2ccc(F)cc2F)cc1Cl (stereo not drawn) [compound 51] | 0 | 0 | 0
CC(O)(Cn1cncn1)c1ccc(Oc2ccc(Cl)cc2)cc1C(F)(F)F (stereo not drawn) [compound 24] | 0 | 0 | 0
CC(O)(Cn1cncn1)c1ccc(Oc2ccc(C(F)(F)F)cc2)cc1Cl (stereo not drawn) [compound 36] | – | 14 | –
CCC(O)(Cn1cncn1)c1ccc(Oc2ccccc2C(F)(F)F)cc1Cl (stereo not drawn) [compound 53] | 3 | 2 | 0
CC(O)(Cn1cncn1)c1ccc(Oc2ccc(Cl)cc2Cl)cc1Cl (stereo not drawn) [compound 32] | 9 | 3 | 12
CC(O)(Cn1cncn1)c1ccc(Oc2ccccc2C(F)(F)F)cc1Cl (stereo not drawn) [compound 35] | 1 | 1 | 0
CC(O)(Cn1cncn1)c1ccc(Oc2ccc(Cl)cc2)cc1Cl (stereo not drawn) [compound 31] | 3 | 2 | 0
OC(Cn1cncn1)(c1ccc(Oc2ccccc2C(F)(F)F)cc1Cl)C1CC1 (stereo not drawn) [compound 38] | 2 | 1 | 1
OC(Cn1cncn1)(c1ccc(Oc2ccc(C(F)(F)F)cc2)cc1Cl)C1CC1 (stereo not drawn) [compound 40] | 8 | 1 | 2
CCC(O)(Cn1cncn1)c1ccc(Oc2ccc(F)cc2)cc1Cl (stereo not drawn) [compound 50] | 2 | 9 | 0
CC(C)(C)C(O)(Cn1cncn1)c1ccc(Oc2ccc(F)cc2F)cc1 (stereo not drawn) [compound 45] | 0 | 1 | 0
CC(O)(Cn1cncn1)c1ccc(Oc2ccc(F)cc2)cc1C(F)(F)F (stereo not drawn) [compound 28] | 0 | 7 | 0
CC(C)(C)C(O)(Cn1cncn1)c1ccc(Oc2ccc(Cl)cc2)cc1 (stereo not drawn) [compound 43] | 3 | – | 0
OC(Cn1cncn1)(c1ccc(Oc2ccc(Cl)cc2)cc1Cl)C1CC1 (stereo not drawn) [compound 42] | 3 | 1 | 0
CC(O)(Cn1cncn1)c1ccc(Oc2ccc(F)cc2F)cc1C(F)(F)F (stereo not drawn) [compound 29] | 0 | 0 | 5
CC(O)(Cn1cncn1)c1ccc(Oc2ccc(C(F)(F)F)cc2)cc1C(F)(F)F (stereo not drawn) [compound 27] | 18 | 1 | 0
CCC(O)(Cn1cncn1)c1ccc(Oc2ccc(C(F)(F)F)cc2)cc1Cl (stereo not drawn) [compound 54] | 4 | 2 | 0
CC(C)(C)C(O)(Cn1cncn1)c1ccc(Oc2ccccc2C(F)(F)F)cc1 (stereo not drawn) [compound 47] | 15 | 1 | 0
CCC(O)(Cn1cncn1)c1ccc(Oc2ccc(Cl)cc2)cc1Cl (stereo not drawn) [compound 49] | 2 | 1 | 3
CCC(O)(Cn1cncn1)c1ccc(Oc2ccc(Cl)cc2Cl)cc1Cl (stereo not drawn) [compound 52] | 3 | 1 | 0
CC(C)(C)C(O)(Cn1cncn1)c1ccc(Oc2ccc(C(F)(F)F)cc2)cc1 (stereo not drawn) [compound 48] | – | 1 | 0
CC(C)(C)C(O)(Cn1cncn1)c1ccc(Oc2ccc(Cl)cc2Cl)cc1 (stereo not drawn) [compound 46] | 6 | 2 | 4
CC(O)(Cn1cncn1)c1ccc(Oc2ccc(F)cc2F)cc1Cl (stereo not drawn) [compound 34] | 1 | 0 | 0
OC(Cn1cncn1)(c1ccc(Oc2ccc(F)cc2F)cc1Cl)C1CC1 (stereo not drawn) [compound 41] | 1 | 0 | 0
CC(O)(Cn1cncn1)c1ccc(Oc2ccc(Cl)cc2Cl)cc1C(F)(F)F (stereo not drawn) [compound 25] | 3 | 2 | 0
